Laboratory results taken from patent publication US12157730B2, “Heteroaryl derivative, method for producing same, and pharmaceutical composition comprising same as effective component” (VORONOI INC., priority 2019, dated 2024).

These compounds were tested against T1, Ba/F3 cell EGFR Exon20 ins NPH (Homo sapiens, UniProt P00533, INS773NPH) (assay: Ba/F3 cell proliferation suppression, EGFR Exon20 ins NPH). Details: GI50 class; Ba/F3 cell line with NPH inserted at Exon20 of EGFR; 72 hours.
T1 construct: expressed in transfected cells; host or cells: Ba/F3
Format: cell-based
Procedure, shortened: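 Seed 3000–5000 cells/well; after 24 h add compound (12 conc., 0.3 nM–50 um final); incubate 72 h; add CellTiter-Glo, 10 min room temperature; read luminescence; GI50 from % growth vs control, triplicate.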

Ba/F3 (NPH) Activity	SMILES
A (GI50 < 50 nM)	C=CC(=O)Nc1cc(Nc2cc(N3OCC[C@@H]3Cc3cccc(F)c3C)ncn2)c(OC)cc1N1CCC(N2CCN(C3CC3)CC2)CC1 [compound 999, N-(2-(4-(4-cyclopropylpiperazine-1-yl)piperidine-1-yl)-5-((6-((S)-3-(3-fluoro-2-methylbenzyl)isoxazolidine-2-yl)pyrimidine-4-yl)amino)-4-methoxyphenyl) acrylamide]
A (GI50 < 50 nM)	C=CC(=O)Nc1cc(Nc2cc(N3OCC[C@@H]3c3ccc(F)c(Cl)c3F)ncn2)c(OC)cc1N1CCC(N2CCN(C(C)=O)CC2)CC1 [compound 636, N-(2-(4-(4-acetylpiperazine-1-yl)piperidine-1-yl)-5-((6-((R)-3-(3-chloro-2,4-difluorophenyl)isoxazolidine-2-yl)pyrimidine-4-yl)amino)-4-methoxyphenyl) acrylamide]
A (GI50 < 50 nM)	C=CC(=O)Nc1cc(Nc2cc(N3OCC[C@@H]3Cc3cccc(Cl)c3F)ncn2)c(OC)cc1N1CCC(N2CCN(C3CC3)CC2)CC1 [compound 1020, N-(5-((6-((S)-3-(3-chloro-2-fluorobenzyl)isoxazolidine-2-yl)pyrimidine-4-yl)amino)-2-(4-(4-cyclopropylpiperazine-1-yl)piperidine-1-yl)-4-methoxyphenyl) acrylamide]
A (GI50 < 50 nM)	C=CC(=O)Nc1cc(Nc2cc(N3OCC[C@@H]3Cc3cccc(F)c3C)ncn2)c(OC)cc1N1CCN(CC)CC1 [compound 1003, N-(2-(4-ethylpiperazine-1-yl)-5-((6-(S)-(3-(3-fluoro-2-methylbenzyl)isoxazolidine-2-yl)pyrimidine-4-yl)amino)-4-methoxyphenyl) acrylamide]
B (50 nM ≤ GI50 < 500 nM)	C=CC(=O)Nc1cc(Nc2cc(N3OCC[C@@H]3c3cc(F)cc(F)c3)ncn2)c(OC)cc1N1C[C@@H]2C[C@H]1CO2 [compound 437, N-(2-((1S,4S)-2-oxa-5-azabicyclo [2.2.1]heptane-5-yl)-5-((6-((R)-3-(3,5-difluorophenyl)isoxazolidine-2-yl)pyrimidine-4-yl)amino)-4-methoxyphenyl) acrylamide]
A (GI50 < 50 nM)	C=CC(=O)Nc1cc(Nc2cc(N3OCC[C@@H]3c3cc(F)cc(F)c3)ncn2)c(OC)cc1N1CCC(N2C[C@H]3CCN(C)[C@H]3C2)CC1 [compound 445, N-(5-((6-((R)-3-(3,5-difluorophenyl)isoxazolidine-2-yl)pyrimidine-4-yl)amino)-4-methoxy-2-(4-((3aR,6aR)-1-methylhexahydropyrrolo [3,4-b]pyrrole-5(1H)-yl)piperidine-1-yl)phenyl)acrylamide]
B (50 nM ≤ GI50 < 500 nM)	C=CC(=O)Nc1cc(Nc2cc(N3OCC[C@@H]3c3cccc(Cl)c3)ncn2)c(OC)cc1N1C[C@@H]2C[C@H]1CO2 [compound 466, N-(2-((1S,4S)-2-oxa-5-azabicyclo[2.2.1]heptane-5-yl)-5-((6-((R)-3-(3-chlorophenyl)isoxazolidine-2-yl)pyrimidine-4-yl)amino)-4-methoxyphenyl) acrylamide]
C (500 nM ≤ GI50 < 5000 nM)	C=CC(=O)Nc1cc(Nc2cc(N3OCC[C@H]3Cc3ccccc3)ncn2)c(OC)cc1N1CCN(CCN(C)C)CC1 [compound 976, N-(5-((6-((R)-3-benzylisoxazolidine-2-yl)pyrimidine-4-yl)amino)-2-(4-(2-(dimethylamino)ethyl)piperazine-1-yl)-4-methoxyphenyl) acrylamide]
A (GI50 < 50 nM)	C=CC(=O)Nc1cc(Nc2cc(N3OCC[C@@H]3c3cccc(Cl)c3C)ncn2)c(OC)cc1N1CCC(N2CCOCC2)CC1 [compound 486, N-(5-((6-((R)-3-(3-chloro-2-methylphenyl)isoxazolidine-2-yl)pyrimidine-4-yl)amino)-4-methoxy-2-(4-morpholinopiperidine-1-yl)phenyl)acrylamide]
